The source of these data is ChEMBL document CHEMBL1143491, “Pentacyclic triterpenes. Part 1: the first examples of naturally occurring pentacyclic triterpenes as a new class of inhibitors of glycogen phosphorylases” (Bioorg Med Chem Lett, 2005).

For this assay, the target named is T1, Glycogen phosphorylase, liver form (Rattus norvegicus, UniProt P09811).
T1 sequence (P09811 whole entry): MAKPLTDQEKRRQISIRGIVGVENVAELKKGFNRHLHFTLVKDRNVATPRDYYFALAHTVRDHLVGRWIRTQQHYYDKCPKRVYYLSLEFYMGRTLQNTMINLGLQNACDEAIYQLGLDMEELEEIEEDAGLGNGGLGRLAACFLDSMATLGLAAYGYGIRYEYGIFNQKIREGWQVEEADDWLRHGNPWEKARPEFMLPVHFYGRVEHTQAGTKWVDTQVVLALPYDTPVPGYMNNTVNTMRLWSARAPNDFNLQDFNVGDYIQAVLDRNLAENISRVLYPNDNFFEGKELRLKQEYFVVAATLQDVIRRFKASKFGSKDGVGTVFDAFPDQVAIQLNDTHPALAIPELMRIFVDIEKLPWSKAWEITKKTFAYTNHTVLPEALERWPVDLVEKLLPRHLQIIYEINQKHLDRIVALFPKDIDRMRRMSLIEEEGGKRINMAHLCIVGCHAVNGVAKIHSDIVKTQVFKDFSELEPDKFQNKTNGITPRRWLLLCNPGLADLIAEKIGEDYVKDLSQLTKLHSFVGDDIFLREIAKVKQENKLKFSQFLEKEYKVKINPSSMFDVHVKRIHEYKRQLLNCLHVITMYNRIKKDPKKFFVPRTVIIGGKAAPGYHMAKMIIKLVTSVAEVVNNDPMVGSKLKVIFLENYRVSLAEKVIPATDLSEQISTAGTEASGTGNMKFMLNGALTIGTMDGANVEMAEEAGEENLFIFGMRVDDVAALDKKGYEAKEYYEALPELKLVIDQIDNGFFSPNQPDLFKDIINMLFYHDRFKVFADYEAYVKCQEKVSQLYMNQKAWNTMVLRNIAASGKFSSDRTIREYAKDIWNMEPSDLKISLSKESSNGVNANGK
The assay can be described thus: Inhibitory concentration against rat liver glycogen phosphorylase.
Broadly, the IC50 is the concentration needed to halve the response being measured. Take `Cn1c(=O)c2c(ncn2C)n(C)c1=O` [CAFFEINE]: inhibition was half-maximal at 648 µM (IC50).
Take `C[C@H]1[C@H](C)CC[C@]2(C(=O)O)CC[C@]3(C)C(=CC[C@@H]4[C@@]5(C)C[C@@H](O)[C@H](O)C(C)(C)[C@@H]5CC[C@]43C)[C@H]12` [COROSOLIC ACID]: the 50% inhibitory concentration (IC50) amounted to 101 µM.
In turn, `CC1(C)CC[C@]2(C(=O)O)CC[C@]3(C)C(=CC[C@@H]4[C@@]5(C)C[C@@H](O)[C@H](O)C(C)(C)[C@@H]5CC[C@]43C)[C@@H]2C1` [MASLINIC ACID] showed a half-inhibitory concentration (IC50) of 99 µM.
